We go through 2 compounds from patent publication US20260109690A1, “HDAC6 INHIBITORS AND METHOD OF THEIR USE” (Baerenkraft Therapeutics, LLC., priority 2024, published 2026).

The nature of data set [1]: Tg2576 study: body weight. The settings on record: G3 Tg2576 mice, 50 mg/kg (80 mg/kg from day 36) p.o., in g (unit assumed). The data set is classed as in vivo. How it is done: Compound I-16 (free base; purity of 98.77%) was tested in a vehicle of PEG 400 (30%), Tween 80 (2%), and water (68%) at a concentration of […]. Dose formulations were prepared every day prior to dose administration. Oral dosages of 50 mg/kg were used unless otherwise indicated. 80 mg/kg doses were similarly prepared at a concentration of 8 mg/mL Male mice aged 6 months were used. 30 total animals were used with 10 animals in each group and 3 groups total. Groups were separated according to the following parameters.
Mice were weighed and randomized into groups. All the test formulations were freshly administered to respective animals of each group as per body weight. Basal behavior of the animals was recorded and analyzed in open field, Y-Maze, and EPM. Post basal behavior, animals were treated with compound I-16 for the duration of 3 months (i.e., from 6 months until 9 months). During the treatment duration, animals were subjected to different behavioral tests such as OFT, Y-maze, and EPM at 7, 8 and 9 months. At the end of experiments (i.e., at 9 months) animals were subjected to Morris water maze test.

The target of the next data set is T1, HDAC6 (Homo sapiens, UniProt Q9UBN7).
T1 sequence (Q9UBN7 1-1215): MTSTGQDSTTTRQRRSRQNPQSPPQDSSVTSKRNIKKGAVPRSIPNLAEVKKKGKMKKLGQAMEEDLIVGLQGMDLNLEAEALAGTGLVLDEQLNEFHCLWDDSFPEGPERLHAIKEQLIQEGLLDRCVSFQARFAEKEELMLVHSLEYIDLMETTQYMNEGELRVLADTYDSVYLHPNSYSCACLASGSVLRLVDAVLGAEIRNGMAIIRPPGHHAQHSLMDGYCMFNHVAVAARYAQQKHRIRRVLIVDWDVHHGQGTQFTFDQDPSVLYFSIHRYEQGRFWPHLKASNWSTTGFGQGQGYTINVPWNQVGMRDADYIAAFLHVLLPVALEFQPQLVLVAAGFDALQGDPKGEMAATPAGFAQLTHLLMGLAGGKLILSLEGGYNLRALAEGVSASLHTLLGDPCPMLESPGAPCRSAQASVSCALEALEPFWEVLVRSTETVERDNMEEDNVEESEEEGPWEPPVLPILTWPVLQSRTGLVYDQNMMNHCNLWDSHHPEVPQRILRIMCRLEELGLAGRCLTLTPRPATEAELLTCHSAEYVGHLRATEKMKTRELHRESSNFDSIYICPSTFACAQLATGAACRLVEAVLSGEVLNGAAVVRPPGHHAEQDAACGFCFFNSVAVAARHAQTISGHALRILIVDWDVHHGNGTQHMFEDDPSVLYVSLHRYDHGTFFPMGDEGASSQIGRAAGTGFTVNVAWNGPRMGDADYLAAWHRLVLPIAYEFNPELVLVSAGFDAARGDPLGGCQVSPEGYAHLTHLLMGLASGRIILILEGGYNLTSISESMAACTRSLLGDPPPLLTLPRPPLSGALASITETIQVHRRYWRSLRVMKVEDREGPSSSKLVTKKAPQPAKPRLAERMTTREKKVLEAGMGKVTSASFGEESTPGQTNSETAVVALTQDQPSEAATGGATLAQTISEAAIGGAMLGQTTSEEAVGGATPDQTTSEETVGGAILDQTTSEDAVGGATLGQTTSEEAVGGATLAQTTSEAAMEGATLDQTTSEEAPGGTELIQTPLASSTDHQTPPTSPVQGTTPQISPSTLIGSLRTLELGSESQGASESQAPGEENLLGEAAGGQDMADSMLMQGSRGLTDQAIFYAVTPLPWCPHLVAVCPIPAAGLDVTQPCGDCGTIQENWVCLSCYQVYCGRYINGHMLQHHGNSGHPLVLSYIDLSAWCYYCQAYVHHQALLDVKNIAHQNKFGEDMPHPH
As to the kind of experiment: Biochemical HDAC6 inhibitory activity assay.

A further data set addresses T2, HDAC8 (Homo sapiens, UniProt Q9BY41).
T2 sequence (Q9BY41 1-377): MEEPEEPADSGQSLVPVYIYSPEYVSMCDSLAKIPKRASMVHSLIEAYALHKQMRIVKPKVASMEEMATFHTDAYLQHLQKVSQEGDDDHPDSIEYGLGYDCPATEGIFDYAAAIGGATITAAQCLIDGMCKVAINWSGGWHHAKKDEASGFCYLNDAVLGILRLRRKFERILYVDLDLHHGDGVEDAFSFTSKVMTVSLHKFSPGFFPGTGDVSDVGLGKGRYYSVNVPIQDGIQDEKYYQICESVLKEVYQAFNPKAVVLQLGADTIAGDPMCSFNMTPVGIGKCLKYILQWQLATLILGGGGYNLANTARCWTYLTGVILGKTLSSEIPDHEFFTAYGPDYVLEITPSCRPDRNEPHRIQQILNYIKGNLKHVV
As to the kind of experiment: HDAC selectivity panel: HDAC8. The data set is classed as biochemical.

A further data set has as its target HDAC1 (Homo sapiens, UniProt Q13547). Put plainly: HDAC selectivity panel: HDAC1. The data set is classed as biochemical.

Like-named read-outs stand apart in the source and are kept apart here. Some results are limits rather than exact numbers.

HDAC1, sequence (Q13547 whole entry, species assumed): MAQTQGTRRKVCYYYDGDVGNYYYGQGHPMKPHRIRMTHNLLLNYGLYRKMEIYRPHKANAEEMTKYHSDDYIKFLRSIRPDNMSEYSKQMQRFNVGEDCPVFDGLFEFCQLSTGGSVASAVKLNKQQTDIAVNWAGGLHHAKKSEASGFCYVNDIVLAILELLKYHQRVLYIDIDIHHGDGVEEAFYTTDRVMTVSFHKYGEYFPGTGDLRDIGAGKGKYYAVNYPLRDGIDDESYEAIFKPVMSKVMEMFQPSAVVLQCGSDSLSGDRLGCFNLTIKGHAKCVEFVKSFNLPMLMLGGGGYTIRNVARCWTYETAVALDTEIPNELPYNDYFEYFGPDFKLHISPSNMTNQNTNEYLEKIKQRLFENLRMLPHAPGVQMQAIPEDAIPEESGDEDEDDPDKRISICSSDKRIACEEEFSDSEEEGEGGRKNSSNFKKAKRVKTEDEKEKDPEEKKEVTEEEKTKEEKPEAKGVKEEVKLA

Regarding `C[C@@H]1CN(Cc2ccc(Nc3nccc(-c4ccc(C(=O)NO)cc4)n3)cc2F)CCO1` [Compound I-16, (R)-4-(2-((3-fluoro-4-((2-methylmorpholino)methyl)phenyl)amino)pyrimidin-4-yl)-N-hydroxybenzamide], the Body weight in data set [1] (Day 0) is 28.08 ± 0.84; in data set [1] (Day 4) it was 27.31 ± 0.52; in data set [1] (Day 7), 26.85 ± 0.66; in data set [1] (Day 14), 28.27 ± 0.87; in data set [1] (Day 21), 27.65 ± 0.86; in data set [1] (Day 28), 28.23 ± 1.02. Besides, the Body weight in data set [1] (Day 35) worked out at 28.88 ± 0.55; in data set [1] (Day 42), 28.35 ± 0.63; in data set [1] (Day 49), 28.76 ± 0.76; in data set [1] (Day 56), 27.77 ± 0.67; in data set [1] (Day 63) it was 28.72 ± 1.03; in data set [1] (Day 70), 29.54 ± 0.72. Further, the Body weight is recorded as 29.16 ± 0.71 in data set [1] (Day 77), 29.14 ± 0.86 in data set [1] (Day 84) and 29.41 ± 0.78 in data set [1] (Day 91). For the same compound, the IC50 on HDAC6 (read-out: HDAC6 IC50) was less than 1 µM; on HDAC6 (unit inferred, read-out: IC50 against HDAC6 (FIG. 3)), 0.0124 µM.
Regarding `CC1CN(Cc2ccc(Nc3nccc(-c4ccc(C(=O)NO)cc4)n3)cc2F)CCO1` (racemic) [Compound I-8, 4-(2-((3-fluoro-4-((2-methylmorpholino)methyl)phenyl)amino)pyrimidin-4-yl)-N-hydroxybenzamide], the IC50 on HDAC6 (10-dose IC50 mode, in singlet, 3-fold serial dilution, test compound starting at 100 millimolar, read-out: HDAC6 IC50) is 0.00732 µM; at HDAC6 (read-out: HDAC6 IC50), less than 1 µM; against HDAC8, 0.102 µM; against HDAC1 it was 1.18 µM. The same compound showed an EC50 on HDAC6 (10-dose in vitro test (FIG. 1)) of 0.00732 µM. The “selectivity for HDAC6 compared to other HDACs” value on HDAC6 (against 11 HDACs) is recorded as “marked selectivity for HDAC6”.

One may read the IC50 as the concentration needed to halve the response being measured. In general, EC50 refers to the concentration at which the effect is half-maximal.
